Laboratory results reported in PubChem BioAssay AID1996.
Values after ≈ are worked out from the molar mass of the structure shown.

Details: buffer; pH 7.4; 200.0 µM

Compound	solubility kinetic
Cc1cccc(C)c1NC(=S)NCc1ccncc1	> 40.7 µg/mL
CCN(Cc1ccccc1)S(=O)(=O)c1ccc(F)cc1	15.6 µg/mL (≈ 53.2 µM)
Cc1ccc(S(=O)(=O)N2CCCC2)s1	32.3 µg/mL (≈ 140 µM)
CC(=O)Nc1cccc(NC(=O)Nc2cccc3ccccc23)c1	0.8 µg/mL (≈ 2.5 µM)
Cc1ccccc1C(=O)NC(=S)NC1CC1	16.3 µg/mL (≈ 69.6 µM)
O=C(Nc1cc2c3c(c1)CC(=O)N3CCC2)c1c(F)cccc1F	9.6 µg/mL (≈ 29.2 µM)
COc1ccc(NC(=O)C2CCCN(S(C)(=O)=O)C2)c(OC)c1 (stereo not given)	> 51.4 µg/mL
O=C(Cc1ccccc1)c1ccccc1C(=O)N1CCCCC1	> 46.1 µg/mL
CN(C)NC(=O)c1ccc([N+](=O)[O-])s1	> 32.3 µg/mL
Cc1c(-c2ccccc2)cnc2c(C)cccc12	< 0.5 µg/mL
CC1(C)CCc2cc(CN3CCN(c4ccccn4)CC3)ccc2O1	47.5 µg/mL (≈ 141 µM)
CCOC(=O)c1ccc(NC(=O)CCC(=O)NCc2ccco2)cc1	4.7 µg/mL (≈ 13.6 µM)
O=C(CN1C(=O)c2ccccc2S1(=O)=O)c1ccc(O)c(O)c1	> 50 µg/mL
COc1ccc(/C=C/C(=O)N2CC(C)OC(C)C2)cc1OC (stereo not given)	45.4 µg/mL (≈ 149 µM)
O=C(CSc1ncccn1)NC(=O)c1ccccc1	33.1 µg/mL (≈ 121 µM)
O=C(NCCc1c[nH]c2ccccc12)c1ccc(Br)o1	45.7 µg/mL (≈ 137 µM)
O=C(CCN1C(=O)c2cccc([N+](=O)[O-])c2C1=O)NC1CCCCCC1	> 53.9 µg/mL
Cl.O=S(=O)(CCC1CCCCN1)c1ccccc1 (stereo not given)	> 43.5 µg/mL
O=C(COC(=O)/C=C/c1cccc(Br)c1)NC1CCCC1	4.1 µg/mL (≈ 11.6 µM)
CCOC(=O)c1c(C)[nH]c(C(=O)OCc2ccc(C)cc2)c1C	3.2 µg/mL (≈ 10.1 µM)

Compound	solubility kinetic
Cc1cccc(Nc2c([N+](=O)[O-])c(=O)oc3ccccc23)c1	< 0.3 µg/mL
CNC(=S)NCCCc1ccccc1	> 31.2 µg/mL
CC(NC(=S)NC(=O)c1ccccc1)c1ccccc1 (stereo not given)	6.4 µg/mL (≈ 22.5 µM)
O=C(COC(=O)c1cncc(Br)c1)NCc1cccs1	40.6 µg/mL (≈ 114 µM)
CC1CCN(C(=O)NC(=O)c2ccc(Cl)cc2)CC1	> 42.1 µg/mL
Cc1ccc(N(C)C2=NC(=O)CS2)cc1Cl	34.8 µg/mL (≈ 137 µM)
CC(=O)c1ccc(N2CCN(C(=O)c3cccs3)C(C)C2)c(F)c1 (stereo not given)	> 52 µg/mL
COc1ccc(Cl)cc1NC(=O)CN(C)C(=O)C1COc2ccccc2O1 (stereo not given)	43.1 µg/mL (≈ 110 µM)
CN1CCN(c2c(F)cc([N+](=O)[O-])c(N)c2Br)CC1	> 50 µg/mL
Cc1csc(=O)n1CC(=O)Nc1ccc(S(C)(=O)=O)cc1	> 49 µg/mL
COc1ccc(Br)cc1CN1CCCCCC1	37.4 µg/mL (≈ 125 µM)
O=C(O)c1ccccc1-c1cc2ccccc2[nH]1	29.9 µg/mL (≈ 126 µM)
Cc1ccccc1CCN1CCCC(CN(C)CC(C)(C)C)C1 (stereo not given)	15 µg/mL (≈ 47.4 µM)
CCOC(=O)Cc1csc(NC(=O)c2cc(=O)c3ccccc3o2)n1	51.8 µg/mL (≈ 145 µM)
CC(CCc1ccccc1)NC(=O)c1ccc(Br)cc1 (stereo not given)	1.1 µg/mL (≈ 3.31 µM)
Nc1ccccc1NC(=O)NC(=O)c1ccccc1	6.1 µg/mL (≈ 23.9 µM)
COc1cc(CNc2ncnc3c2[nH]c2ccc(C)cc23)cc(OC)c1	0.7 µg/mL (≈ 2.01 µM)
O=C(Nc1ccc(F)cc1)c1cc(Cl)sc1Cl	1.9 µg/mL (≈ 6.55 µM)
COc1ccc2c(c1)CCC/C2=N\OC(=O)c1ccccc1F	< 0.7 µg/mL
Cc1ccc(S(=O)(=O)N2CCCCC2)cc1NC(=O)Cc1cccs1	20.6 µg/mL (≈ 54.4 µM)

Compound	solubility kinetic
CC(C)c1ccc(NC(=O)CSc2nc3ncccc3[nH]2)cc1	3.2 µg/mL (≈ 9.8 µM)
CCOC(=O)C1CCCN(Cc2nc(CC3CC3)no2)C1 (stereo not given)	40 µg/mL (≈ 136 µM)
Cc1ccc(OCC(=O)NCC2CCCO2)c(C)c1 (stereo not given)	> 39.5 µg/mL
CCc1noc(C)c1C(=O)Nc1nc(-c2ccccc2)cs1	5 µg/mL (≈ 16 µM)
O=C(COC(=O)c1cccnc1Cl)NC1CCCc2ccccc21 (stereo not given)	> 51.7 µg/mL
Nc1ncnc(SCc2c(F)cccc2Cl)n1	2.8 µg/mL (≈ 10.3 µM)
CSc1nsc(SC)c1C(=O)O	> 33.2 µg/mL
O=C(Nc1ccccc1Cc1ccccc1)c1ccccc1F	3.1 µg/mL (≈ 10.2 µM)
Oc1ccccc1-c1nc(NC2CCCC2)c2ccccc2n1	< 0.2 µg/mL
COC(=O)c1ccc(C(=O)OC)c(NC(=S)N2CCCC2)c1	9.6 µg/mL (≈ 29.8 µM)
Cn1c(=NC(=O)COc2ccccc2)sc2ccccc21	0.8 µg/mL (≈ 2.68 µM)
O=C(NCc1ccccc1)c1c[nH]c2ccccc2c1=O	39.3 µg/mL (≈ 141 µM)
O=C(CN1CCc2ccccc2C1)Nc1ccccc1Cl	8.7 µg/mL (≈ 28.9 µM)
COC(=O)[C@H](Cc1ccccc1)NC(=O)NCCc1ccc(F)cc1	> 51.7 µg/mL
CCN1CCN(Cc2c3ccccc3cc3ccccc23)CC1	27.9 µg/mL (≈ 91.6 µM)
CC(C)CNC(=O)[C@H](Cc1ccccc1)NC(=O)c1cccs1	9.6 µg/mL (≈ 29.1 µM)
CCc1cccc(NC(=O)C2CC2c2ccccc2)c1 (stereo not given)	0.7 µg/mL (≈ 2.64 µM)
Cl.O=C(CNCc1ccccc1)NC1C2CC3CC(C2)CC1C3 (stereo not given)	50.2 µg/mL
NC(=O)C1CCN(C(=O)COc2ccc3c4c(c(=O)oc3c2)CCCC4)CC1	> 57.7 µg/mL
CN(C)c1ccc(P(=O)(OC2CCCCC2)C(O)c2ccncc2)cc1 (stereo not given)	52.8 µg/mL (≈ 141 µM)
